Patent US12655125B2 (SIRONAX LTD., priority 2020, dated 2026)
pEC50: −log10 of the molar value.

What follows are molecules tested on HT-29 cells (assay: HT29 Cells 0FBS Assay In Vitro (TNF-α/SMAC mimetic/zVAD-FMK induced necroptosis, CellTiter-Glo cell viability)). Details: Homo sapiens, HT-29, 20 h, read-out: Cell activity (EC50) of Compounds 117-281.
Assay type: cell-based
How it was run: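 HT-29 cells (5,000/well, seeded overnight) in serum-free McCoy's 5A were stimulated with TNF-α 10 ng/ml, SMAC mimetic 6 μM and zVAD-FMK 10 μM to induce necroptosis. Compound added as 10-point 3-fold series for 20 h at 37° C. CellTiter-Glo luminescence gives viability; EC50 is geometric mean of duplicate dose-responses.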

**Q.** `CC(=O)Nc1cc(-c2cc(OC3CN(C(=O)N4N=CC[C@H]4c4cc(F)cc(F)c4)C3)c(F)cn2)n(C)n1` [compound 135] was tested. Which pEC50 did it give?
**A.** 7.00 to 10.00

Same assay, conditions: Homo sapiens; HT-29 cells, FBS free medium, TNF-α (10 ng/ml), SMAC mimetic (6 uM), zVAD-FMK (10 μM), 20 hours; geometric mean EC50; read-out: Cell activity (EC50) of Compounds 117-281

**Q.** How did the pEC50 turn out when `Cc1nsc(C)c1-c1cc(OC2CN(C(=O)N3N=CC[C@H]3c3cc(F)cc(F)c3)C2)c(F)cn1` [compound 127, (S)-(5-(3,5-difluorophenyl)-4,5-dihydro-1H-pyrazol-1-yl)(3-((2-(3,5-dimethylisothiazol-4-yl)-5-fluoropyridin-4-yl)oxy)azetidin-1-yl)methanone] was run?
**A.** 7.00 to 10.00

**Q.** `CCOC(=O)c1c(C)cc(C)n1-c1cc(OC2CN(C(=O)N3N=CC[C@H]3c3cc(F)cc(F)c3)C2)c(F)cn1` [compound 128, Ethyl (S)-1-(4-((1-(5-(3,5-difluorophenyl)-4,5-dihydro-1H-pyrazole-1-carbonyl)azetidin-3-yl)oxy)-5-fluoropyridin-2-yl)-3,5-dimethyl-1H-pyrrole-2-carboxylate] was tested. Which pEC50 did it give?
**A.** 7.00 to 10.00

**Q.** With `COC(=O)c1cc(C)n(-c2cc(OC3CN(C(=O)N4N=CC[C@H]4c4cc(F)cc(F)c4)C3)c(F)cn2)c1C` [compound 129, methyl (S)-1-(4-((1-(5-(3,5-difluorophenyl)-4,5-dihydro-1H-pyrazole-1-carbonyl)azetidin-3-yl)oxy)-5-fluoropyridin-2-yl)-2,5-dimethyl-1H-pyrrole-3-carboxylate] as the molecule, how does the pEC50 read?
**A.** 7.00 to 10.00

**Q.** With `Cc1nn(C2COC2)c(C)c1-c1cc(OC2CN(C(=O)N3N=CC[C@H]3c3cc(F)cc(F)c3)C2)c(F)cn1` [compound 130, (S)-(5-(3,5-difluorophenyl)-4,5-dihydro-1H-pyrazol-1-yl)(3-((2-(3,5-dimethyl-1-(oxetan-3-yl)-1H-pyrazol-4-yl)-5-fluoropyridin-4-yl)oxy)azetidin-1-yl)methanone] as the molecule, how does the pEC50 read?
**A.** 7.00 to 10.00

**Q.** How did the pEC50 turn out when `Cc1nn(C2CNC2)c(C)c1-c1cc(OC2CN(C(=O)N3N=CC[C@H]3c3cc(F)cc(F)c3)C2)c(F)cn1` [compound 131, (S)-(3-((2-(1-(azetidin-3-yl)-3,5-dimethyl-11H-pyrazol-4-yl)-5-fluoropyridin-4-yl)oxy)azetidin-1-yl)(5-(3,5-difluorophenyl)-4,5-dihydro-1H-pyrazol-1-yl)methanone] was run?
**A.** 7.00 to 10.00

**Q.** With `Cc1nn(CC2CC2)c(C)c1-c1cc(OC2CN(C(=O)N3N=CC[C@H]3c3cc(F)cc(F)c3)C2)c(F)cn1` [compound 132, (S)-(3-((2-(1-(cyclopropylmethyl)-3,5-dimethyl-1H-pyrazol-4-yl)-5-fluoropyridin-4-yl)oxy)azetidin-1-yl)(5-(3,5-difluorophenyl)-4,5-dihydro-1H-pyrazol-1-yl)methanone] as the molecule, how does the pEC50 read?
**A.** 7.00 to 10.00

**Q.** `CC(C)NC(=O)c1cnn(C)c1-c1cc(OC2CN(C(=O)N3N=CC[C@H]3c3cc(F)cc(F)c3)C2)c(F)cn1` [compound 133, (S)-5-(4-((1-(5-(3,5-difluorophenyl)-4,5-dihydro-1H-pyrazole-1-carbonyl)azetidin-3-yl)oxy)-5-fluoropyridin-2-yl)-N-isopropyl-1-methyl-1H-pyrazole-4-carboxamide] was tested. Which pEC50 did it give?
**A.** 7.00 to 10.00

**Q.** `Cn1ncc(C(=O)NC2CC2)c1-c1cc(OC2CN(C(=O)N3N=CC[C@H]3c3cc(F)cc(F)c3)C2)c(F)cn1` [compound 134, (S)—N-cyclopropyl-5-(4-((1-(5-(3,5-difluorophenyl)-4,5-dihydro-1H-pyrazole-1-carbonyl)azetidin-3-yl)oxy)-5-fluoropyridin-2-yl)-1-methyl-1H-pyrazole-4-carboxamide] was tested. Which pEC50 did it give?
**A.** 7.00 to 10.00

**Q.** How did the pEC50 turn out when `CC(=O)N(C(C)=O)c1cc(-c2cc(OC3CN(C(=O)N4N=CC[C@H]4c4cc(F)cc(F)c4)C3)c(F)cn2)n(C)n1` [compound 136, (S)—N-acetyl-N-(5-(4-((1-(5-(3,5-difluorophenyl)-4,5-dihydro-1H-pyrazole-1-carbonyl)azetidin-3-yl)oxy)-5-fluoropyridin-2-yl)-1-methyl-1H-pyrazol-3-yl)acetamide] was run?
**A.** 7.00 to 10.00

**Q.** How did the pEC50 turn out when `Cn1nc(NC(=O)C2CC2)cc1-c1cc(OC2CN(C(=O)N3N=CC[C@H]3c3cc(F)cc(F)c3)C2)c(F)cn1` [compound 137, (S)—N-(5-(4-((1-(5-(3,5-difluorophenyl)-4,5-dihydro-1H-pyrazole-1-carbonyl)azetidin-3-yl)oxy)-5-fluoropyridin-2-yl)-1-methyl-1H-pyrazol-3-yl)cyclopropanecarboxamide] was run?
**A.** 7.00 to 10.00

**Q.** With `Cc1nn(-c2cc(OC3CN(C(=O)N4N=CC[C@H]4c4cc(F)cc(F)c4)C3)c(F)cn2)c(C)c1NC(=O)C1CCOCC1` [compound 138] as the molecule, how does the pEC50 read?
**A.** 7.00 to 10.00

**Q.** `Cc1nn(-c2cc(OC3CN(C(=O)N4N=CC[C@H]4c4cc(F)cc(F)c4)C3)c(F)cn2)c(C)c1NC(=O)C1CC1` [compound 139, (S)—N-(1-(4-((1-(5-(3,5-difluorophenyl)-4,5-dihydro-1H-pyrazole-1-carbonyl)azetidin-3-yl)oxy)-5-fluoropyridin-2-yl)-3,5-dimethyl-1H-pyrazol-4-yl)cyclopropanecarboxamide] was tested. Which pEC50 did it give?
**A.** 7.00 to 10.00

**Q.** `CC(=O)Nc1c(C)nn(-c2cc(OC3CN(C(=O)N4N=CC[C@H]4c4cc(F)cc(F)c4)C3)c(F)cn2)c1C` [compound 140, (S)—N-(1-(4-((1-(5-(3,5-difluorophenyl)-4,5-dihydro-1H-pyrazole-1-carbonyl)azetidin-3-yl)oxy)-5-fluoropyridin-2-yl)-3,5-dimethyl-1H-pyrazol-4-yl)acetamide] was tested. Which pEC50 did it give?
**A.** 7.00 to 10.00

**Q.** How did the pEC50 turn out when `CC(C)NC(=O)Nc1cnn(C)c1-c1cc(OC2CN(C(=O)N3N=CC[C@H]3c3cc(F)cc(F)c3)C2)c(F)cn1` [compound 141, (S)-1-(5-(4-((1-(5-(3,5-difluorophenyl)-4,5-dihydro-1H-pyrazole-1-carbonyl)azetidin-3-yl)oxy)-5-fluoropyridin-2-yl)-1-methyl-1H-pyrazol-4-yl)-3-isopropylurea] was run?
**A.** 7.00 to 10.00

**Q.** With `CNC(=O)Nc1cnn(C)c1-c1cc(OC2CN(C(=O)N3N=CC[C@H]3c3cc(F)cc(F)c3)C2)c(F)cn1` [compound 142, (S)-1-(5-(4-((1-(5-(3,5-difluorophenyl)-4,5-dihydro-1H-pyrazole-1-carbonyl)azetidin-3-yl)oxy)-5-fluoropyridin-2-yl)-1-methyl-11H-pyrazol-4-yl)-3-methylurea] as the molecule, how does the pEC50 read?
**A.** 7.00 to 10.00

**Q.** How did the pEC50 turn out when `Cc1ncc(C#N)n1-c1cc(OC2CN(C(=O)N3N=CC[C@H]3c3cc(F)cc(F)c3)C2)c(F)cn1` [compound 143, (S)-1-(4-((1-(5-(3,5-difluorophenyl)-4,5-dihydro-1H-pyrazole-1-carbonyl)azetidin-3-yl)oxy)-5-fluoropyridin-2-yl)-2-methyl-1H-imidazole-5-carbonitrile] was run?
**A.** 7.00 to 10.00

**Q.** With `Cc1c(NC(=O)C2CC2)nn(C)c1-c1cc(OC2CN(C(=O)N3N=CC[C@H]3c3cc(F)cc(F)c3)C2)c(F)cn1` [compound 144, (S)—N-(5-(4-((1-(5-(3,5-difluorophenyl)-4,5-dihydro-1H-pyrazole-1-carbonyl)azetidin-3-yl)oxy)-5-fluoropyridin-2-yl)-1,4-dimethyl-1H-pyrazol-3-yl)cyclopropanecarboxamide] as the molecule, how does the pEC50 read?
**A.** 7.00 to 10.00

**Q.** With `Cc1c(NCC(N)=O)nn(C)c1-c1cc(OC2CN(C(=O)N3N=CC[C@H]3c3cc(F)cc(F)c3)C2)c(F)cn1` [compound 145, (S)-2-((5-(4-((1-(5-(3,5-difluorophenyl)-4,5-dihydro-1H-pyrazole-1-carbonyl)azetidin-3-yl)oxy)-5-fluoropyridin-2-yl)-1,4-dimethyl-1H-pyrazol-3-yl)amino)acetamide] as the molecule, how does the pEC50 read?
**A.** 7.00 to 10.00

**Q.** With `Cn1ccnc1-c1cc(OC2CN(C(=O)N3N=CC[C@H]3c3cc(F)cc(F)c3)C2)c(F)cn1` [compound 146, (S)-(5-(3,5-difluorophenyl)-4,5-dihydro-1H-pyrazol-1-yl)(3-((5-fluoro-2-(1-methyl-1H-imidazol-2-yl)pyridin-4-yl)oxy)azetidin-1-yl)methanone] as the molecule, how does the pEC50 read?
**A.** 7.00 to 10.00

**Q.** `Cc1ccc(C)n1-c1cc(OC2CN(C(=O)N3N=CC[C@H]3c3cc(F)cc(F)c3)C2)c(F)cn1` [compound 147, (S)-(5-(3,5-difluorophenyl)-4,5-dihydro-1H-pyrazol-1-yl)(3-((2-(2,5-dimethyl-1H-pyrrol-1-yl)-5-fluoropyridin-4-yl)oxy)azetidin-1-yl)methanone] was tested. Which pEC50 did it give?
**A.** 7.00 to 10.00

**Q.** How did the pEC50 turn out when `Cc1nn(-c2cc(OC3CN(C(=O)N4N=CC[C@H]4c4cc(F)cc(F)c4)C3)c(F)cn2)c(C)c1CO` [compound 148, (S)-(5-(3,5-difluorophenyl)-4,5-dihydro-1H-pyrazol-1-yl)(3-((5-fluoro-2-(4-(hydroxymethyl)-3,5-dimethyl-1H-pyrazol-1-yl)pyridin-4-yl)oxy)azetidin-1-yl)methanone] was run?
**A.** 7.00 to 10.00

**Q.** How did the pEC50 turn out when `Cn1ncc(C(N)=O)c1-c1ccc(F)c(OC2CN(C(=O)N3N=CC[C@H]3c3cc(F)cc(F)c3)C2)n1` [compound 149, (S)-5-(6-((1-(5-(3,5-difluorophenyl)-4,5-dihydro-1H-pyrazole-1-carbonyl)azetidin-3-yl)oxy)-5-fluoropyridin-2-yl)-1-methyl-1H-pyrazole-4-carboxamide] was run?
**A.** 7.00 to 10.00

**Q.** `Cc1c(C#N)nn(C)c1-c1cc(OC2CN(C(=O)N3N=CC[C@H]3c3cc(F)cc(F)c3)C2)c(F)cn1` [compound 150, (S)-5-(4-((1-(5-(3,5-difluorophenyl)-4,5-dihydro-1H-pyrazole-1-carbonyl)azetidin-3-yl)oxy)-5-fluoropyridin-2-yl)-1,4-dimethyl-1H-pyrazole-3-carbonitrile] was tested. Which pEC50 did it give?
**A.** 7.00 to 10.00

**Q.** How did the pEC50 turn out when `Cc1nn(-c2cc(OC3CN(C(=O)N4N=CC[C@H]4c4cc(F)cc(F)c4)C3)c(F)cn2)c(C)c1C#N` [compound 151, (S)-1-(4-((1-(5-(3,5-difluorophenyl)-4,5-dihydro-1H-pyrazole-1-carbonyl)azetidin-3-yl)oxy)-5-fluoropyridin-2-yl)-3,5-dimethyl-1H-pyrazole-4-carbonitrile] was run?
**A.** 7.00 to 10.00

**Q.** `Cc1nc(C)n(-c2cc(OC3CN(C(=O)N4N=CC[C@H]4c4cc(F)cc(F)c4)C3)c(F)cn2)c1C` [compound 152, (S)-(5-(3,5-difluorophenyl)-4,5-dihydro-1H-pyrazol-1-yl)(3-((5-fluoro-2-(2,4,5-trimethyl-11H-imidazol-1-yl)pyridin-4-yl)oxy)azetidin-1-yl)methanone] was tested. Which pEC50 did it give?
**A.** 7.00 to 10.00
